The source of these data is patent US20240057600A1, “METHODS FOR CONTROLLING OR PREVENTING INFESTATION OF PLANTS BY A PHYTOPATHOGENIC MICROORGANISM OF THE GENUS ASPERGILLUS” (priority 2020, published 2024).

In test [1] the test system is Aspergillus flavus isolates. The test can be described thus: In vitro conidial germination inhibition assay on amended agar. In kind it is cell-based. Conditions: 31 A. flavus isolates, 18 hours incubation; for EC50 values, maximum: highest concentration used 10 mg a.i./L. Here is the method:
(§1) The sensitivity to cyclobutrifluram of 104 isolates of Aspergillus niger and 31 isolates of Aspergillus flavus was determined under in vitro lab conditions using a mycelial growth inhibition assay. Isolates of Aspergillus niger were retrieved from infected seeds or infected plants with clear symptoms of crown rot disease. Isolates of Aspergillus flavus were collected from infected seeds. The sensitivity to azoxystrobin of the isolates was determined under in vitro conditions using a conidial germination inhibition assay. Sensitivity tests were conducted in vitro using agar medium amended with cyclobutrifluram or azoxystrobin at the following concentrations: 0, 0.001, 0.01, 0.1, 1, and 10 mg a.i./L. The plates were incubated at room temperature (22 C). The mycelial growth of the colonies growing on plates amended or not with cyclobutrifluram was determined after 5 days of incubation. The conidial germination on agar plates amended or not with azoxystrobin was determined after 18 hours of incubation. A conidium was rated as germinated, if a normally developing germ tube had at least the length of a conidium. […] Effective dose values (EC50) are expressed in mg of cyclobutrifluram or azoxystrobin active ingredient/L. [table] [table]

Test [2] has as its system Aspergillus niger isolates. The test is described as above. In kind it is cell-based. As to conditions: 104 A. niger isolates, 18 hours incubation; for EC50 values, minimum: 22 C; for EC50 values, maximum: highest concentration used 10 mg a.i./L. Here is the method: as §1
Test [3] relates to Aspergillus niger. Kind of test: Peanut field trial, seed treatment, pest incidence 42 days after planting. In kind it is in vivo, Aspergillus niger on Arachis hypogaea (peanut). As for the experimental part: A peanut field trial was carried out on May 11, 2020 in Malpur, Gujarat, India, to evaluate the efficacy of different compounds against Aspergillus sp. fungi. The disease symptoms started to occur 4 weeks after planting and an assessment on disease incidence (% infected plants) was done 42 days after planting.
Pest Incidence, 42 Days after Planting

Test [4] relates to Aspergillus flavus isolates. Kind of test: In vitro mycelial growth inhibition assay on amended agar. Format: cell-based. As to conditions: 120 h, 5 days incubation, 22 C. Here is the method: as §1
In test [5] the test system is Aspergillus niger isolates. The test is described as above. In kind it is cell-based. As to conditions: 120 h, 5 days incubation, 22 C. As for the experimental part: as §1

≈ marks a conversion by molar mass, not a printed value. Like-named read-outs stand apart in the source and are kept apart here. Bounds are passed on as bounds.

For `CO/C=C(/C(=O)OC)c1ccccc1Oc1cc(Oc2ccccc2C#N)ncn1` [Azoxystrobin, azoxystrobin], the figures for the “EC50 values, minimum” value in test [1] (22 C), in test [2] and in test [2] (listed as azoxystrobin) were 0.003457 mg · ai/L, less than 0.001 mg · ai/L and 0.000793 mg · ai/L, respectively. For the same molecule, the “EC50 values, maximum” value in test [1] is given as greater than 10 mg · ai/L; in test [1] (listed as azoxystrobin), “more than 10 mg · ai/L”; in test [2], greater than 10 mg · ai/L; in test [2] (listed as azoxystrobin) it was “more than 10 mg · ai/L”.

Regarding `O=C(N[C@@H]1CC[C@@H]1c1ccc(Cl)cc1Cl)c1cccnc1C(F)(F)F` (racemic) [Cyclobutrifluram, cyclobutrifluram], the “Pest incidence (LS Means)” value in test [3] (peanut GG 20, field trial Malpur, Gujarat, India, seed treatment, 42 days after planting, rates g AI/100 kg: VITAVAX 225, cyclobutrifluram 60, VIBRANCE MAXX 150, EVERGOL XTEND 30.8) was 0.42, % infected plants. Moreover, the “% efficacy based on disease incidence” value in test [3] (peanut GG 20, field trial, seed treatment, 42 days after planting, rates g AI/100 kg: VITAVAX 225, cyclobutrifluram 60, VIBRANCE MAXX 150, EVERGOL XTEND 30.8) was 97.03%. For the same molecule, the “Aspergillus niger pest incidence compared to the untreated and standard treatments” value in test [3] (treatment 3, 60 g AI/100 kg seed treatment, 42 days after application) is on record as “significantly lower”. For the same molecule, the EC50 was found to be 0.108 µg/mL (≈ 0.277 µM) in test [4] (31 A. flavus isolates from infected peanut seeds, read-out: EC50 values, mean (geometric mean)); 0.7 µg/mL (≈ 1.8 µM) in test [4] (31 A. flavus isolates, read-out: EC50 values, maximum); 0.0262 µg/mL (≈ 0.0673 µM) in test [4] (31 A. flavus isolates, read-out: EC50 values, minimum); 0.082 µg/mL (≈ 0.211 µM) in test [5] (104 A. niger isolates from infected peanut seeds or plants, read-out: EC50 values, mean (geometric mean)); 0.703 µg/mL (≈ 1.81 µM) in test [5] (104 A. niger isolates, read-out: EC50 values, maximum); 0.00924 µg/mL (≈ 0.0238 µM) in test [5] (104 A. niger isolates, read-out: EC50 values, minimum).
